For this test, the species on record is Bos taurus. The experiment in a line: Inhibition of bovine thymocytes protein tyrosine kinase assessed as angiotensin 1 phosphorylation.

Structures are written as SMILES. ≈ marks a conversion by molar mass, not a printed value. Calls of active or inactive are those of the source. The rule behind the calls is not given here. Bounds are passed on as bounds.

As to `COc1ccc(-c2oc3cc(OC)cc(O)c3c(=O)c2OC)cc1`, the ID50 is more than 500 µg/mL.
Still for that read-out and setting: as for `O=c1cc(-c2ccc(O)cc2)oc2cc(O)cc(O)c12`, the figure is 90 µg/mL (≈ 333 µM); as for `O=C1CC(c2ccccc2)Oc2cc(O)ccc21` (stereo not drawn), more than 500 µg/mL; as for `O=C1c2c(O)cc(O)cc2O[C@H](c2ccc(O)c(O)c2)[C@H]1O`, 270 µg/mL (≈ 887 µM).
For `COc1ccc(-c2oc3cc(O)cc(O)c3c(=O)c2OC)cc1`, the ID50 is more than 500 µg/mL.
Still for that read-out and setting: as for `O=c1c(O)c(-c2ccc(O)c(O)c2)oc2cc(O)cc(O)c12`, the figure is 11 µg/mL (≈ 36.4 µM); as for `O=C(O)/C=C/c1ccc(O)cc1`, 450 µg/mL (≈ 2740 µM).
On the same count and under the same terms, as for `O=c1c(O)c(-c2cc(O)c(O)c(O)c2)oc2cc(O)ccc12`, the figure is 7 µg/mL (≈ 23.2 µM).
On the same count and under the same terms, then `COc1ccc(-c2coc3cc(O)cc(O)c3c2=O)cc1`, with more than 500 µg/mL; and `COc1ccc(-c2cc(=O)c3c(O)cc(OC)cc3o2)cc1`, with more than 500 µg/mL; and `O=c1c(-c2ccc(O)cc2)coc2cc(O)cc(O)c12`, with more than 500 µg/mL.
For the compound `COc1cc(C(=O)O)cc(OC)c1O`, the ID50 is more than 500 µg/mL.
The same measure, in the same setting: as for `COc1ccc(-c2cc(=O)c3c(O)cc(O)cc3o2)cc1`, the figure is 300 µg/mL (≈ 1060 µM).
Take `O=c1cc(-c2ccccc2)oc2ccc3ccccc3c12`: the result was inactive.
Turning to `O=C1C[C@@H](c2ccc(O)cc2)Oc2cc(O)cc(O)c21`, the ID50 worked out at 80 µg/mL (≈ 294 µM).
On the same count and under the same terms, then `O=C1c2ccc(O)cc2O[C@H](c2ccc(O)c(O)c2)[C@H]1O`, with more than 500 µg/mL; and `O=C1C[C@@H](c2ccccc2)Oc2cc(O)cc(O)c21`, with more than 500 µg/mL; and `C[C@H]1O[C@@H](Oc2c(-c3cc(O)c(O)c(O)c3)oc3cc(O)cc(O)c3c2=O)[C@@H](O)[C@@H](O)[C@@H]1O`, with more than 500 µg/mL.
Still for that read-out and setting: then `COc1cc(/C=C/C(=O)O)ccc1O`, with 350 µg/mL (≈ 1800 µM); and `COc1ccc(-c2cc(=O)c3c(O)c(OC)c(O)c(OC)c3o2)cc1`, with 48 µg/mL (≈ 139 µM).
Turning to `O=c1c(-c2ccc(O)cc2)coc2cc(O)c(O)cc12`, the ID50 is more than 500 µg/mL.
On to `O=c1c(O)c(-c2ccc(O)c(O)c2)oc2cc(O)ccc12`, for which the ID50 turned out to be 35 µg/mL (≈ 122 µM).
Still for that read-out and setting: as for `O=c1c(O)c(-c2cc(O)c(O)c(O)c2)oc2cc(O)cc(O)c12`, the figure is 11 µg/mL (≈ 34.6 µM).

The values are drawn from ChEMBL document CHEMBL1147305, “Inhibition of protein-tyrosine kinase activity by flavanoids and related compounds” (J Nat Prod, 1989).
